Patent publication EP0535528A1, “Antibacterial 5-Nitro-1-methyl-imidazolyl-3-terbutyl-2-hydroxy-aryl-carbinols” (EURORESEARCH S.r.L., priority 1991, dated 1993)
≈ marks a conversion by molar mass, not a printed value.

Assays:
Helicobapter pylori [1] = test: Minimal inhibiting concentration (agar dilution); format: cell-based
Method: Substances under examination: EU11100, EU11102, EU11103, EU11104. Comparison substance: Metronidazole Solubilization of the substances: All the substances to be studied are dissolved at room temperature in DMSO. […] 10 strains of Helicobapter pylori are used of recent clinical isolation […] The sowing of the bacteria, prepared as described in the preceding test is carried out by means a "multi-point inoculator". After 48 hours incubation under the condition described in the preceding test, the plates are examined and the Minimal Inhibiting Concentration is evaluated, namely that dose corresponding to growth absence.

Helicobapter pylori [2] = test: Inhibition halos of the bacterial growth (impregnated disks on agar); format: cell-based; conditions: for activity against the Helicobapter pylori strains used: 10 strains
Method: Comparison substance: Metronidazole Solubilization of the substances : All the substances to be studied are dissolved at room temperature in DMSO.
Some commercially available antibiogram disks are so impregnated with the above mentioned compounds that each disk has concentration equal to 10, 1, 0.1, 0.01 µg.
10 strains of Helicobapter pylori are used of recent clinical isolation.
Columbia Blood Agar Base is used, containing 5% of defibrinated horse blood, 2 % of calf serum, 2 vials of Vitox per liter of medium and Vancomicine (10 µg/ml) Trimetoprim lactate(5 µg/ml) and Polimixin B (2.5 U/ml).
0.1 ml of a suspension of the different used strains are uniformly distributed onto Petri plates, containing 20 ml of Columbia Blood Agar base, obtained by taking a sample, by means of a platinum loop, of different colonies from a 48 hours culture, grown in anaerobiosis jars with "Gas Pack", without a catalyst and diluted into a physiological solution.
4 disks per plate, previously impregnated with the substances under examination, are then placed onto the agar layer of each plate.
After 48 hours of anaerobiosis incubation, as above described, the inhibition halos of the bacterial growth, produced by the different activity of the substances inside the agar, are evaluated.

MIC50 (Helicobapter pylori [1]; 10 strains): 0.12 µg/mL (≈ 0.701 µM)
MIC90 (Helicobapter pylori [1]; 10 strains): 0.25 µg/mL (≈ 1.46 µM)
MIC range (Helicobapter pylori [1]; 10 strains): 0.015 to 0.25 µg/mL
MIC (Helicobapter pylori [1]; strain 1): 0.25 µg/mL (≈ 1.46 µM)
MIC (Helicobapter pylori [1]; strain 2): 0.06 µg/mL (≈ 0.351 µM)
MIC (Helicobapter pylori [1]; strain 3): 0.25 µg/mL (≈ 1.46 µM)
MIC (Helicobapter pylori [1]; strain 4): 0.25 µg/mL (≈ 1.46 µM)
MIC (Helicobapter pylori [1]; strain 5): 0.015 µg/mL (≈ 0.0876 µM)
MIC (Helicobapter pylori [1]; strain 6): 0.12 µg/mL (≈ 0.701 µM)
MIC (Helicobapter pylori [1]; strain 7): 0.25 µg/mL (≈ 1.46 µM)
MIC (Helicobapter pylori [1]; strain 8): 0.25 µg/mL (≈ 1.46 µM)
MIC (Helicobapter pylori [1]; strain 9): 0.12 µg/mL (≈ 0.701 µM)
MIC (Helicobapter pylori [1]; strain 10): 0.12 µg/mL (≈ 0.701 µM)
SMILES: Cc1ncc([N+](=O)[O-])n1CCO [Metronidazole, reference compound]
activity against the Helicobapter pylori strains used (Helicobapter pylori [2]; 0.1 µg/disk): inactive
activity against the Helicobapter pylori strains used (Helicobapter pylori [2]; 1 µg/disk): inactive
Inhibition halo (mm), Average (Helicobapter pylori [2]; average of 10 strains, 10 µg/disk): 39.5 mm
activity against Helicobapter pylori (Helicobapter pylori [2]; general statement, at a low concentration): poorly effective
Inhibition halo (mm) at the concentration (µg/disk) (Helicobapter pylori [2]; strain 1, 0.01 µg/disk): 0 mm
Inhibition halo (mm) at the concentration (µg/disk) (Helicobapter pylori [2]; strain 1, 0.1 µg/disk): 0 mm
Inhibition halo (mm) at the concentration (µg/disk) (Helicobapter pylori [2]; strain 1, 1 µg/disk): 0 mm
Inhibition halo (mm) at the concentration (µg/disk) (Helicobapter pylori [2]; strain 1, 10 µg/disk): 45 mm
Inhibition halo (mm) at the concentration (µg/disk) (Helicobapter pylori [2]; strain 2, 0.01 µg/disk): 0 mm
Inhibition halo (mm) at the concentration (µg/disk) (Helicobapter pylori [2]; strain 2, 0.1 µg/disk): 0 mm
Inhibition halo (mm) at the concentration (µg/disk) (Helicobapter pylori [2]; strain 2, 1 µg/disk): 0 mm
Inhibition halo (mm) at the concentration (µg/disk) (Helicobapter pylori [2]; strain 2, 10 µg/disk): 33 mm
Inhibition halo (mm) at the concentration (µg/disk) (Helicobapter pylori [2]; strain 3, 0.01 µg/disk): 0 mm
Inhibition halo (mm) at the concentration (µg/disk) (Helicobapter pylori [2]; strain 3, 0.1 µg/disk): 0 mm
Inhibition halo (mm) at the concentration (µg/disk) (Helicobapter pylori [2]; strain 3, 1 µg/disk): 0 mm
Inhibition halo (mm) at the concentration (µg/disk) (Helicobapter pylori [2]; strain 3, 10 µg/disk): 45 mm
Inhibition halo (mm) at the concentration (µg/disk) (Helicobapter pylori [2]; strain 4, 0.01 µg/disk): 0 mm
Inhibition halo (mm) at the concentration (µg/disk) (Helicobapter pylori [2]; strain 4, 0.1 µg/disk): 0 mm
Inhibition halo (mm) at the concentration (µg/disk) (Helicobapter pylori [2]; strain 4, 1 µg/disk): 0 mm
Inhibition halo (mm) at the concentration (µg/disk) (Helicobapter pylori [2]; strain 4, 10 µg/disk): 42 mm
Inhibition halo (mm) at the concentration (µg/disk) (Helicobapter pylori [2]; strain 5, 0.01 µg/disk): 0 mm
Inhibition halo (mm) at the concentration (µg/disk) (Helicobapter pylori [2]; strain 5, 0.1 µg/disk): 0 mm
Inhibition halo (mm) at the concentration (µg/disk) (Helicobapter pylori [2]; strain 5, 1 µg/disk): 0 mm
Inhibition halo (mm) at the concentration (µg/disk) (Helicobapter pylori [2]; strain 5, 10 µg/disk): 42 mm
Inhibition halo (mm) at the concentration (µg/disk) (Helicobapter pylori [2]; strain 6, 0.01 µg/disk): 0 mm
Inhibition halo (mm) at the concentration (µg/disk) (Helicobapter pylori [2]; strain 6, 0.1 µg/disk): 0 mm
Inhibition halo (mm) at the concentration (µg/disk) (Helicobapter pylori [2]; strain 6, 1 µg/disk): 0 mm
Inhibition halo (mm) at the concentration (µg/disk) (Helicobapter pylori [2]; strain 6, 10 µg/disk): 41 mm
Inhibition halo (mm) at the concentration (µg/disk) (Helicobapter pylori [2]; strain 7, 0.01 µg/disk): 0 mm
Inhibition halo (mm) at the concentration (µg/disk) (Helicobapter pylori [2]; strain 7, 0.1 µg/disk): 0 mm
Inhibition halo (mm) at the concentration (µg/disk) (Helicobapter pylori [2]; strain 7, 1 µg/disk): 0 mm
Inhibition halo (mm) at the concentration (µg/disk) (Helicobapter pylori [2]; strain 7, 10 µg/disk): 32 mm
Inhibition halo (mm) at the concentration (µg/disk) (Helicobapter pylori [2]; strain 8, 0.01 µg/disk): 0 mm
Inhibition halo (mm) at the concentration (µg/disk) (Helicobapter pylori [2]; strain 8, 0.1 µg/disk): 0 mm
Inhibition halo (mm) at the concentration (µg/disk) (Helicobapter pylori [2]; strain 8, 1 µg/disk): 0 mm
Inhibition halo (mm) at the concentration (µg/disk) (Helicobapter pylori [2]; strain 8, 10 µg/disk): 40 mm
Inhibition halo (mm) at the concentration (µg/disk) (Helicobapter pylori [2]; strain 9, 0.01 µg/disk): 0 mm
Inhibition halo (mm) at the concentration (µg/disk) (Helicobapter pylori [2]; strain 9, 0.1 µg/disk): 0 mm
Inhibition halo (mm) at the concentration (µg/disk) (Helicobapter pylori [2]; strain 9, 1 µg/disk): 0 mm
Inhibition halo (mm) at the concentration (µg/disk) (Helicobapter pylori [2]; strain 9, 10 µg/disk): 38 mm
Inhibition halo (mm) at the concentration (µg/disk) (Helicobapter pylori [2]; strain 10, 0.01 µg/disk): 0 mm
Inhibition halo (mm) at the concentration (µg/disk) (Helicobapter pylori [2]; strain 10, 0.1 µg/disk): 0 mm
Inhibition halo (mm) at the concentration (µg/disk) (Helicobapter pylori [2]; strain 10, 1 µg/disk): 0 mm
Inhibition halo (mm) at the concentration (µg/disk) (Helicobapter pylori [2]; strain 10, 10 µg/disk): 37 mm
